Here are results for 1 molecule from patent publication US20250230149A1, “MGLUR5 MODULATING COMPOUNDS, COMPOSITIONS, AND METHODS OF USE” (Allyx Therapeutics, Inc., priority 2022, published 2025).

“Also recorded” adds a separate entry of the source.

Series [1] in a line: Intravenous and oral cross-over pharmacokinetic study. It counts as in vivo, male Sprague Dawley rats. As to conditions: male rats, IV 1 mg/kg. As to the method: This study assessed the PK of Compound 1 AH Form A in male Sprague Dawley rats (3/group) following single IV (intravenous) administration at 1 mg/kg as a solution in 2.5% N-Methyl-2-pyrrolidone (NMP)+1% Solutol HS15 in water or a PO (oral) administration of 3 formulations at 5 and 50 mg/kg, administered to the same animals in a cross over with 7 days recovery.
Serial plasma samples were collected at intervals to 24 h post dose and the level of Compound 1 determined in each plasma sample by LC-MS/MS.

For another series, the target named is T1, CYP2B6 (Homo sapiens, UniProt P20813).
T1 construct: purchased
T1 sequence (P20813 whole entry): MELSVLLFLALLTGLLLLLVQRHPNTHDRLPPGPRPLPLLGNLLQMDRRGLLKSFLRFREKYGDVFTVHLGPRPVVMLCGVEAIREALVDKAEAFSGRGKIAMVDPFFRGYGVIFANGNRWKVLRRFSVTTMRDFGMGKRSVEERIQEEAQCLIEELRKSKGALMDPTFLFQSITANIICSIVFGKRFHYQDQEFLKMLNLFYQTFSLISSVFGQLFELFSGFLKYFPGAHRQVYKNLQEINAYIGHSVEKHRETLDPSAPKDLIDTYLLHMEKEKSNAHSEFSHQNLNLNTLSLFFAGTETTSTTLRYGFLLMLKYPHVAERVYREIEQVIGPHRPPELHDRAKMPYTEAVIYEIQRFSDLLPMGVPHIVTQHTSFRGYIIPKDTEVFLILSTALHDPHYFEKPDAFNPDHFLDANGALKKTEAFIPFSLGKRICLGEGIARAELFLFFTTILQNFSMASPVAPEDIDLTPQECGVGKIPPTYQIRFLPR
As to the kind of experiment: CYP450 reaction phenotyping in Supersomes, CYP2B6. The class given is in vitro ADME. The method, then: (§1) In Vitro CYP450 Reaction Phenotyping Study in Supersomes™ Over-Expressing Human CYP Enzymes
(§2) The CYPP450 enzymes involved in the Phase I metabolism of Compound 1 Form A were investigated in vitro. Compound 1 Form A was metabolized by CYP1A2, CYP2D6 and CYP3A4 and with T1/2 values of 64, 14, and 176 min, respectively, and CLint of 0.261, 0.984 and 0.0786 μL/min/pmol CYP, respectively. No evidence of Compound 1 metabolism by CYP2B6, CYP2C8, CYP2C9 and CYP2C19 was observed.

In the next series the target is CYP2C19 (Homo sapiens, UniProt P33261). As to the kind of experiment: CYP450 reaction phenotyping in Supersomes, CYP2C19. The class given is in vitro ADME. The method, then: as §1, §2
CYP2C19, sequence (P33261 whole entry): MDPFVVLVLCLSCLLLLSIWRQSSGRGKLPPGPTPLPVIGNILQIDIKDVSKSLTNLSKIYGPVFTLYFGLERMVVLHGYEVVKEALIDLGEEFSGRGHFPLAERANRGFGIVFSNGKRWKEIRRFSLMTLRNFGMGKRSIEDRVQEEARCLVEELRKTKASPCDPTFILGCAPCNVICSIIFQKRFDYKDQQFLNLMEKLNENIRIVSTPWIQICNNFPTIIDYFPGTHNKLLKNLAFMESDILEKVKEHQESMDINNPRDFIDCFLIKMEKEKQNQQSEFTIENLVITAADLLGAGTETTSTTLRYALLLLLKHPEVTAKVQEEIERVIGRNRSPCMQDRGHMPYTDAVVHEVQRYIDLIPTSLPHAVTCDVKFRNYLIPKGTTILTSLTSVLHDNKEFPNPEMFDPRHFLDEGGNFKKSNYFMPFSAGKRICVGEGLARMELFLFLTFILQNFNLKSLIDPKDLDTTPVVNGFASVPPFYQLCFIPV
The target of series [2] is T2, pregnane X receptor (PXR) (Homo sapiens, UniProt O75469).
T2 sequence (O75469 1-434): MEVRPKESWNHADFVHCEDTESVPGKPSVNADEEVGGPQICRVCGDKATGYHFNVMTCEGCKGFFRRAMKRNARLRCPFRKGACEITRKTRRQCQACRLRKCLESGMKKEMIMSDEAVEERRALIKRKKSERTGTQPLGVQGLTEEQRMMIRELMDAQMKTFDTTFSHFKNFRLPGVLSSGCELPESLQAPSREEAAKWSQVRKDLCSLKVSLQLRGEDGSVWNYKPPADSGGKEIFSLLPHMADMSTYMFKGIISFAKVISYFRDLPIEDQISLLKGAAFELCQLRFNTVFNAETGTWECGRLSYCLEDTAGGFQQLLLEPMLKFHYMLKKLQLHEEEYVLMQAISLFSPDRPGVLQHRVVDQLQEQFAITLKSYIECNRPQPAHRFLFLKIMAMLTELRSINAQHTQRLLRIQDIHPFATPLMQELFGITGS
The experiment in a line: PXR receptor activation, human. It counts as in vitro ADME. From the text: (§3) The objective of this study was to determine the human and rat pregnane X receptor (PXR) and human and rat aryl hydrocarbon receptor (AhR) receptor activation potential of Compound 1 Form A. The activation of PXR is a marker for induction of CYP3A4/5 and […] and the activation of AhR is a marker for induction of CYP1A.

The target of series [3] is pregnane X receptor (PXR) (Rattus norvegicus, UniProt Q9R1A7). The experiment in a line: PXR receptor activation, rat. It counts as in vitro ADME. The following applies: at 30 μM.
pregnane X receptor (PXR) (Rattus norvegicus, UniProt Q9R1A7), sequence (Q9R1A7 whole entry): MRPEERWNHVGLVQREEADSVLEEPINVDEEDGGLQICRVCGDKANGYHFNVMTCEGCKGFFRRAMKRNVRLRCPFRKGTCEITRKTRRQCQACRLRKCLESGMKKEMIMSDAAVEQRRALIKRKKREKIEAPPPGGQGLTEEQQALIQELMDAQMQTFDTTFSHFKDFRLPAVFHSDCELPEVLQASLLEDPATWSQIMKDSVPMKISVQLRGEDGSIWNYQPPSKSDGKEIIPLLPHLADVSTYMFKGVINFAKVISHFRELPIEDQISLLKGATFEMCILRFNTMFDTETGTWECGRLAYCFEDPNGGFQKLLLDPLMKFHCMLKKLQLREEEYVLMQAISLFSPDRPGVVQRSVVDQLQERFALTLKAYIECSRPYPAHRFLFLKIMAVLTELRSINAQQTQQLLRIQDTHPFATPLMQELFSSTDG
From the text: as §3

The subject of a further series is APP/PS1 mice. The experiment in a line: SV2A PET imaging of synaptic density in APP/PS1 mouse model. The following applies: 12 months of age, one-month treatment, 3.75 mg/kg q12 oral. It counts as in vivo. The method, then: The objective of this study was to assess synaptic density of control and APP/PS1 mice before and after treatment with Compound 1, and to assess the reversibility of any observed effects following a drug washout period.
Vehicle (95% polyethylene glycol (PEG) 400/5% solutol) or Compound 1 at 7.5 mg/kg/day (3.75 mg/kg q12) was given to control and APP/PS1 mice for at least 28 days by oral administration. A subset of mice stopped treatment after four weeks, then underwent a four-week washout period.
To further maximize translational relevance, in other studies mice were aged to the point that synapse loss was detectable using SV2A PET. At 12 months of age, synapse density, as measured by hippocampal/brainstem [^18F]SDM-8 SUVR-1, is reduced in APP/PS1 mice relative to wild-type.

Another series has as its system dKI mice. As to the kind of experiment: Immunohistochemical staining of SV2A and PSD-95 in APPNLGF/MAPT (dKI) mouse model. It counts as in vivo. As to conditions: 3.75 mg/kg q12 oral, at least 28 days. As to the method: The objective of this study was to assess synaptic density of control and Amyloid Precursor Protein carrying NL-G-F mutations/Microtubule-associated protein tau (APP^NLGF/MAPT) (dKI—double knock-in) mice before and after treatment with Compound 1. Vehicle (95% PEG-400/5% Solutol) or Compound 1 at 7.5 mg/kg/day (3.75 mg/kg q12) was given to control and dKI mice for at least 28 days by oral administration.
Reduced synaptic density in dKI samples relative to controls was confirmed by immunohistochemical staining of pre- and post-synaptic markers (SV2A and PSD-95) in hippocampal and cortical sections.

In another series the test system is C57/BI6J mice. The experiment in a line: Prevention of positive allosteric modulator (PAM) induced seizures. It counts as in vivo. As to conditions: oral gavage 2 hours before PAM 20 mg/kg i.p. As to the method: The objective of this study was to assess the enantiomeric selectivity of Compound 1 for the mGluR5 receptor as a function of seizure prevention. It had been previously reported that PAMs of mGluR5 are capable of inducing seizures in C57/BI6J mice.
Compound 1 (0.12, 0.24, 0.47, 0.94, 1.88, 3.75 or 7.5 mg/kg), enantiomer of Compound 1 (7.5, 15 or 30 mg/kg) or vehicle were administered by oral gavage to C57/BI6J mice of 3-11 months of age. After 2 hours, a PAM compound was administered at 20 mg/kg via intraperitoneal injection. Animals were then placed in a 10 inch diameter acrylic cage for observation and video recording for 2 h post dose and seizures were scored using the Racine seizure scoring criteria and normalized to a scale of 0-1.

In series [1] (Sprague Dawley, rat, plasma), `O=C1N[C@H](c2cncc(C#Cc3ccccc3)c2)[C@@H](c2ccccc2Cl)O1` [Compound 1, (4R,5R)-5-(2-chlorophenyl)-4-(5-(phenylethynyl)pyridin-3-yl)oxazolidin-2-one] gave a clearance of 5.98 mL/min/kg and a half-life of 4.49 h. Further, in series [1] (Sprague Dawley, rat, plasma, solution in 2.5% NMP + 1% Solutol HS15 in water), the Cmax turned out to be 595 ng/mL. Besides, in series [1] (Sprague Dawley, rat, plasma, read-out: Vdss), the Vd was 2.23 L/kg. Further, in series [1], the “AUCinf (in AUClast column, footnote 1)” value was 2910^1 ng · h/mL. The “metabolism by CYP2B6” value at CYP2B6 was “No evidence”. Further, at CYP2C19, the “metabolism by CYP2C19” value is “No evidence”. In series [2], the “PXR activation, % of the positive control” value is on record as 29.6%; the “calculated F2 value, PXR” value is recorded as 5.05 UM; the “mean maximum fold activation of PXR” value was determined as 4.58 fold. Moreover, in series [3], the “mean activation of PXR” value amounted to 4.70 fold. Moreover, the “synaptic density, SV2A PET (hippocampal/brainstem [18F]SDM-8 SUVR-1)” value in the series with APP/PS1 mice is listed as “fully recovered; also recorded: highly significant increase”. Moreover, in the series on dKI mice, the “SV2A and PSD-95 staining in the cerebral cortex, relative to vehicle” value was “significant increases”; the “SV2A staining in hippocampus, relative to vehicle” value is on record as “significant increases”. Besides, the seizure prevention activity entry with C57/BI6J mice (Compound 1 0.12-7.5 mg/kg, enantiomer 7.5-30 mg/kg) is given as “dose dependent prevention”. In the series with C57/BI6J mice (Racine score), the “IC50 of inhibition of PAM-induced seizures” value is on record as 1.09 mg/kg.
